{"source": "patent US6313376A", "about": "“Maize aquaporins and uses thereof” (Pioneer Hi-Bred International, Inc., priority 1999, dated 2001)", "key": {"[1]": {"tested_on": "ZmPIP2", "assay": "Osmotic water permeability assay, water channel activity of ZmPIP2 in the presence of cAMP agonists or phosphatase inhibitor", "type": "cell-based, Zea mays", "details": "cAMP agonists to activate cellular PKA, or protein phosphatase inhibitor", "procedure": "(§1) Xenopus laevis oocytes were prepared and injected as previously described (Daniels et al., 1996). The osmotic water permeability assay was conducted as previously described (Weig et al., 1997).\nA number of studies indicate that the activity of aquaporins may be regulated by phosphorylation. For instance, -TIP, a seed specific vacuolar protein from bean, is phosphorylated in vivo and in vitro and the phosphorylation regulates its water channel activity in Xenopus oocytes (Maurel et al., 1993). […] Water channel activity of ZmPIP2 was tested in the presence of (1) cAMP agonists (8-bromoadenosine 3', 5'-cyclic monophosphate, forksolin and 3-isobutyl-1-methylxanthine) to increase the cytosolic cAMP concentration and activate cellular PKA and (2) protein phosphatase inhibitor okadeic acid."}, "[2]": {"biological_target": "T1, ZmPIP3 (Zea mays, UniProt Q9XF58)", "T1 construct": "plasma membrane swelling assay; insert borders and tag not described", "T1 sequence (Q9XF58 1-284)": "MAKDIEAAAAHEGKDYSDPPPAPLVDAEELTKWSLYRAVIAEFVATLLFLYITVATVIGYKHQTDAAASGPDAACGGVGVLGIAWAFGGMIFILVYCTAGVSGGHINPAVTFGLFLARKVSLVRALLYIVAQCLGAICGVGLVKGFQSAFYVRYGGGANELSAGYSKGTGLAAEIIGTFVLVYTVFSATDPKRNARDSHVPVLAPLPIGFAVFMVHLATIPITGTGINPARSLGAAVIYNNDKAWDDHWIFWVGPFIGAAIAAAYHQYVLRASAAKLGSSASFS", "assay": "Osmotic water permeability assay (Xenopus oocyte swelling), inhibition of water transport through ZmPIP3", "type": "cell-based", "procedure": "as §1\n(§2) The biological activity of aquaporins is usually determined with Xenopus oocyte swelling assays (Maurel et al, 1993). MIP cRNA is injected into oocytes and after a 3-day incubation the oocytes are moved to a hypotonic medium. If water channel proteins are present in the plasma membrane, the oocytes swell and burst much faster than the control oocytes. […] The osmotic water permeability coefficient (Pf) of the oocyte membrane increased 8-fold over the control. Mercurial compounds are characteristic inhibitors of many water-channel proteins. Water transport through ZmPIP3 is inhibited 50% by 1 mM mercuric chloride and this inhibition is reversed by the reducing agent -mercaptoethanol."}, "[3]": {"tested_on": "Xenopus laevis oocytes", "assay": "Osmotic water permeability assay of cRNA-injected oocytes (Pf of the oocyte membrane)", "type": "cell-based", "details": "cRNA-injected oocytes moved to hypotonic medium after 3-day incubation; versus control oocytes", "procedure": "as §1, §2"}, "[4]": {"tested_on": "Xenopus laevis oocytes", "assay": "Radiolabeled solute uptake assay in ZmPIP2-expressing oocytes", "type": "cell-based", "details": "1 mM solute, 21° C., 0, 15 and 30 min", "procedure": "Two to three days after water or mRNA injection, groups of 5 oocytes were incubated at 21° C. in […] of Barth's solution containing 0.1 to 0.5 MBq/ml of the radiolabeled solutes ([^14 C]glycerol, […]; [^14 C]choline, 2.0 GBq/mmol; [^14 C]ethanol, 0.144 GBq/mmol; [^14 C]urea, 2.0 GBq/mmol or [^14 C]labeled amino acid mixture without methionine, 1.85 MBq/ml). Nonradioactive solutes were added to give a 1 mM final concentration. After 0, 15 and 30 min, the oocytes were washed rapidly three times in ice-cold Barth's solution, and individual oocytes were dissolved in 5% SDS for scintillation counting.\nAlthough many MIP proteins are aquaporin, some of them can transport small neutral solutes, exclusively or in addition to water. For instance, tobacco NtTIPa and NtAQP1 transport glycerol in addition to water (Gerbeau et al., 1999), whilst the bacterial GIpF is a selective glycerol facilitator. Transport essays were performed in ZmPIP2-expressing oocytes with a series of labeled solutes including glycerol, urea, ethanol, choline and amino acids."}}}
{"molecule": "CC(C)Cn1c(=O)n(C)c(=O)c2[nH]cnc21", "note": "[3-isobutyl-1-methylxanthine]", "values": [{"measurement": "effect on Pf of ZmPIP2-expressing oocytes", "setting": "[1]", "value": "None of these treatments affected the Pf"}]}
{"molecule": "C=C[C@@]1(C)CC(=O)[C@]2(O)[C@@]3(C)[C@@H](O)CCC(C)(C)[C@@H]3[C@H](O)[C@H](OC(C)=O)[C@@]2(C)O1", "note": "[forksolin]", "values": [{"measurement": "effect on Pf of ZmPIP2-expressing oocytes", "setting": "[1]", "value": "None of these treatments affected the Pf"}]}
{"molecule": "okadeic acid", "values": [{"measurement": "effect on Pf of ZmPIP2-expressing oocytes", "setting": "[1]", "value": "None of these treatments affected the Pf"}]}
{"molecule": "Nc1ncnc2c1nc(Br)n2[C@@H]1O[C@@H]2COP(=O)(O)O[C@H]2[C@H]1O", "note": "[8-bromoadenosine 3', 5'-cyclic monophosphate]", "values": [{"measurement": "effect on Pf of ZmPIP2-expressing oocytes", "setting": "[1]", "value": "None of these treatments affected the Pf"}]}
{"molecule": "[Cl][Hg][Cl]", "note": "[mercuric chloride]", "values": [{"measurement": "inhibition of water transport through ZmPIP3", "setting": "[2]; 1 mM mercuric chloride, ZmPIP3 cRNA-injected Xenopus oocytes", "value": 50, "unit": "%"}]}
{"molecule": "OCCS", "note": "[-mercaptoethanol]", "values": [{"measurement": "reversal of mercuric chloride inhibition of ZmPIP3 water transport", "setting": "[2]; reducing agent added after 1 mM mercuric chloride inhibition", "value": "reversed"}]}
{"molecule": "AtRD28: plasma membrane AtRD28 aquaporin (Daniels et al., 1994), positive control in oocytes (protein, UniProt P30302 1-285, looked up) Aquaporin PIP2-3: MAKDVEGPDGFQTRDYEDPPPTPFFDAEELTKWSLYRAVIAEFVATLLFLYVTVLTVIGYKIQSDTKAGGVDCGGVGILGIAWAFGGMIFILVYCTAGISGGHINPAVTFGLFLARKVSLIRAVLYMVAQCLGAICGVGFVKAFQSSHYVNYGGGANFLADGYNTGTGLAAEIIGTFVLVYTVFSATDPKRNARDSHVPVLAPLPIGFAVFMVHLATIPITGTGINPARSFGAAVIFNKSKPWDDHWIFWVGPFIGATIAAFYHQFVLRASGSKSLGSFRSAANV", "values": [{"measurement": "increase of osmotic water permeability coefficient (Pf) of the oocyte membrane over the control", "setting": "[3]", "value": 8, "unit": "fold"}]}
{"molecule": "ZmPIP3: maize aquaporin; polypeptide of SEQ ID NO: 4, expressed from cRNA in Xenopus oocytes (protein) MAKDIEAAAAHEGKDYSDPPPAPLVDAEELTKWSLYRAVIAEFVATLLFLYITVATVIGYKHQTDAAASGPDAACGGVGVLGIAWAFGGMIFILVYCTAGVSGGHINPAVTFGLFLARKVSLVRALLYIVAQCLGAICGVGLVKGFQSAFYVRYGGGANELSAGYSKGTGLAAEIIGTFVLVYTVFSATDPKRNARDSHVPVLAPLPIGFAVFMVHLATIPITGTGINPARSLGAAVIYNNDKAWDDHWIFWVGPFIGAAIAAAYHQYVLRASAAKLGSSASFS", "values": [{"measurement": "increase of osmotic water permeability coefficient (Pf) of the oocyte membrane over the control", "setting": "[3]", "value": 8, "unit": "fold"}]}
{"molecule": "ZmPIP2: maize aquaporin designation; polypeptide of SEQ ID NO: 2, expressed from cRNA in Xenopus oocytes (protein) MEGKEEDVRLGANKFSERQPIGTAAQGAADDKDYKEPPPAPLFEPGELKSWSFYRAGIAEFVATFLFLYITILTVMGVSKSTSKCATVGIQGIAWSFGGMIFALVYCTAGISGGHINPAVTFGLFLARKLSLTRALFYIIMQCLGAICGAGVVKGFQQGLYMGNGGGANVVAPGYTKGDGLGAEIVGTFILVYTVFSATDAKRNARDSHVPILAPLPIGFAVFLVHLATIPITGTGINPARSLGAAIIYNRDHAWNDHWIFWVGPFIGAALAAIYHQVIIRAIPFKSR", "values": [{"measurement": "transport of labeled solutes (glycerol, urea, ethanol, choline, amino acids) versus water-injected oocytes", "setting": "[4]", "value": "None of the solutes tested were preferentially transported"}]}
